Columns and labels:
Assay type in all cases: physicochemical
[1] = Dissociation of chelates in aq. 0.1M HCl at RT (acid decomplexation kinetic inertness) (Chart 20)
[2] = Dissociation of chelates in aq. 1.0M HCl at 80° C. (acid decomplexation kinetic inertness) (Chart 18)
[3] = Dissociation of chelates in aq. 6.0M HCl at 80° C. (acid decomplexation kinetic inertness) (Chart 17)
[4] = Dissociation of chelates in aq. 0.1M HCl at 80° C. (acid decomplexation kinetic inertness) (Chart 19)

| Structure (SMILES) | fraction of intact chelate ([1]; 1 month) [%] | fraction of intact chelate ([1]; 1 week) [%] | fraction of intact chelate ([1]; 1 hour) [%] | fraction of intact chelate ([1]; 1 day) [%] | fraction of intact chelate ([2]; 1 month) [%] | fraction of intact chelate ([2]; 1 week) [%] | fraction of intact chelate ([2]; 1 hour) [%] | fraction of intact chelate ([2]; 1 day) [%] | fraction of intact chelate ([3]; 1 month) [%] | fraction of intact chelate ([3]; 1 week) [%] | fraction of intact chelate ([3]; 1 hour) [%] | fraction of intact chelate ([3]; 1 day) [%] | fraction of intact chelate ([4]; 1 month) [%] | fraction of intact chelate ([4]; 1 week) [%] | fraction of intact chelate ([4]; 1 hour) [%] | fraction of intact chelate ([4]; 1 day) [%] |
| --- | --- | --- | --- | --- | --- | --- | --- | --- | --- | --- | --- | --- | --- | --- | --- | --- |
| O=C1C[N@@]2CC[N@]3CC[N@@](CC[N@](CC2)Cc2cccc(n2)-c2cnnn2Cc2cc(-c4ccccc4)cc(n2)C3)CC(=O)[O][Lu][O]1 [TD522] | 100 | 100 | 100 | 100 | 100 | 100 | 100 | 100 | 98 | 99 | 100 | 100 | 100 | 100 | 100 | 100 |
| O=C1C[N@@]2CC[N@]3CC[N@@](CC[N@](CC2)Cc2cccc(n2)-c2cnnn2Cc2cc(-c4ccccc4)cc(n2)C3)CC(=O)[O][Eu][O]1 [TD599] | 100 | 100 | 100 | 100 | 0 | 0 | 92 | 10 | 0 | 0 | 0 | 0 | 21 | 83 | 100 | 97 |
| O=C1C[N@@]2CC[N@]3CC[N@@](CC[N@](CC2)Cc2cccc(n2)-c2cnnn2Cc2cc(-c4ccccc4)cc(n2)C3)CC(=O)[O][Tb][O]1 [TD600] | 100 | 100 | 100 | 100 | 23 | 78 | 99 | 96 | 0 | 0 | 72 | 0 | 99 | 99 | 100 | 100 |
| O=C1C[N@@]2CC[N@]3CC[N@@](CC[N@](CC2)Cc2cccc(n2)-c2cnnn2Cc2cc(-c4ccccc4)cc(n2)C3)CC(=O)[O][Tm][O]1 [TD601] | 100 | 100 | 100 | 100 | 100 | 100 | 100 | 100 | 69 | 92 | 100 | 99 | 100 | 100 | 100 | 100 |
| O=C1C[N@@]2CC[N@]3CC[N@@](CC[N@](CC2)Cc2cccc(n2)-c2cnnn2Cc2cc(-c4ccccc4)cc(n2)C3)CC(=O)[O][Yb][O]1 [TD602] | 100 | 100 | 100 | 100 | 100 | 100 | 100 | 100 | 90 | 98 | 100 | 100 | 100 | 100 | 100 | 100 |
| O=C1C[N@@]2CC[N@]3CC[N@@](CC[N@](CC2)Cc2cccc(n2)-c2cnnn2Cc2cc(-c4ccccc4)cc(n2)C3)CC(=O)[O][Ho][O]1 [TD648] | 100 | 100 | 100 | 100 | 96 | 99 | 100 | 100 | 0 | 17 | 99 | 81 | 100 | 100 | 100 | 100 |
| O=C1C[N@@]2CC[N@]3CC[N@@](CC[N@](CC2)Cc2cccc(n2)-c2cnnn2Cc2cc(-c4ccccc4)cc(n2)C3)CC(=O)[O][Y][O]1 [TD649] | 100 | 100 | 100 | 100 | 92 | 98 | 100 | 100 | 0 | 7 | 98 | 69 | 100 | 100 | 100 | 100 |
| O=C1C[N@@]2CC[N@]3CC[N@@](CC[N@](CC2)Cc2cccc(n2)-c2cnnn2Cc2cc(-c4ccccc4)cc(n2)C3)CC(=O)[O][La][O]1 [TD651] | 0 | 0 | 76 | 4 | 0 | 0 | 0 | 0 | 0 | 0 | 0 | 0 | 0 | 0 | 0 | 0 |
| O=C([O-])CN1CCN2CCN(CC(=O)[O-])CCN(CC1)Cc1cccc(n1)-c1cnnn1Cc1cc(-c3ccccc3)cc(n1)C2.[Ca+2] [TD863] | 0 | 0 | 39 | 0 | 0 | 0 | 0 | 0 | 0 | 0 | 0 | 0 | 0 | 0 | 0 | 0 |
| O=C1C[N@@]2CC[N@]3CC[N@@](CC[N@](CC2)Cc2cccc(n2)-c2cnnn2Cc2cc(-c4ccccc4)cc(n2)C3)CC(=O)[O][Er][O]1 [TD865] | 100 | 100 | 100 | 100 | 99 | 100 | 100 | 100 | 24 | 71 | 99 | 95 | 100 | 100 | 100 | 100 |
